Source: patent publication US20150071904A1, “COMPOSITIONS AND METHODS TO BOOST ENDOGENOUS ROS PRODUCTION FROM BACTERIA” (Trustees of Boston University, priority 2012, published 2015)

Assays:
[1] = system: Escherichia coli MG1655 wildtype cells; assay: Carboxin inhibitor experiments (CFU survival, alone and combined with H2O2 or ampicillin; dose response and synergy); assay type: cell-based
Protocol: Strains were grown aerobically from an initial inoculation of OD600=0.01 to OD600=0.16-0.20 in 250 mL baffled flasks filled to 1/10th the total volume and shaken at 300 rpm at 37° C. Time-zero samples were collected (200-400 μL), then 1 mL aliquots were transferred to 14 mL test tubes. Carboxin solubilized in 100% ethanol or ethanol alone was added to the tubes. […] Drug synergism was calculated using the Bliss Independence and Highest Single Agent models^52, 53. Specifically, the formula,
was used to calculate synergism with the Bliss Independence model. A and B are the effects of the two drugs in isolation, whereas, BICAB is the combined effect of the two drugs as predicted by the Bliss Independence model. If CAB, the experimentally-determined combined effect of the two drugs, is >BICAB, synergy is observed. In contrast, in the Highest Single Agent model, if CAB>max(A, B) synergy is observed. Since cell death was monitored, the quantitative effect of each compound was defined as the fractional reduction of the population, R=1−CFUt/CFU0, where CFUt is the number of CFUs measured after treatment, and CFU0 is the number of CFUs measured before treatment. R=1 indicates complete loss of the population, R=0 indicates a population in stasis, and R<0 indicates a growing population. […] The Bliss Independence model can be written as follows,
If A is a compound that reduces CFUs, such as ampicillin, its effect above the MIC will be 0≦A≦1, whereas if B is a compound that allows growth at all concentrations, its effect will be B<0 regardless of the concentration. Rearrangement of the above yields,
Since equation 3 yields BICAB/A<1 for all B<0 and 0<A<1, the Highest Single Agent model requires CAB/A>1 and the Bliss Independence model requires CAB/BICAB>1 for synergy, the Highest Single Agent model will always be a more strict synergy requirement under these conditions. […] Modeling Escherichia coli ROS Metabolism

[2] = cited from earlier work
[3] = system: Escherichia coli MG1655 wildtype and single-gene deletion strains; assay: Antimicrobial sensitivity assays (CFU time course of deletion strains and wildtype treated with oxidants or antibiotics); assay type: cell-based; conditions: 500 ng/mL gentamicin, FIG. 6C
Protocol: Escherichia coli MG1655 was used in this study. Genetic deletions of aceA, appB, atpC, cyoA, edd, fumB, fbaB, gdhA, gltB, gnd, mqo, nuoG, pfkB, pta, pykA, rpiB, sdhC, sucC, talB, tktB and zwf were transduced from the Keio single-gene deletion knockout library^63 into MG1655 using the P1 phage method, and confirmed with PCR. The media used for all experiments was M9 minimal media with 10 mM glucose as the sole carbon source or MOPS minimal media with 10 mM glucose (for the HyPer protein experiments).
Strains were grown aerobically from an initial inoculation of OD600=0.01 to OD600=0.16-0.20 in 250 mL baffled flasks filled to 1/10th the total volume and shaken at 300 rpm at 37° C. For menadione, H2O2, and ampicillin sensitivity assays, time-zero samples were collected (200-400 μL), then 1 mL aliquots were transferred to 14 mL test tubes, and appropriate volumes of menadione, H2O2, or ampicillin stock solutions, not in excess of 15 μL, were added to obtain the final concentrations (1 mM menadione, 5 mM H2O2, 7.5 μg/mL ampicillin, 100 ng/mL ofloxacin, 15 ng/mL ciprofloxacin, 500 ng/mL gentamicin, 10 μg/mL tetracycline, and 15 μg/mL chloramphenicol). […] Colony forming units were counted approximately 16-18 hours after plating.

**Q.** With `CC1(C)S[C@@H]2[C@H](NC(=O)[C@H](N)c3ccccc3)C(=O)N2[C@H]1C(=O)O` [ampicillin] as the molecule, how does the “ampicillin concentrations synergistic with carboxin” value ([1]; carboxin 250 μM or greater, Bliss Independence and Highest Single Agent models, FIG. 8) read?
**A.** 7.5 to 10 µg/mL

**Q.** Which results are given for `CC1=C(C(=O)Nc2ccccc2)SCCO1` [carboxin]?
**A.** suitability as antibiotic adjuvant, human toxicity [2]: not suitable as an antibiotic adjuvant due to human toxicity issues; sensitivity of wildtype cells to ampicillin with carboxin compared to ampicillin alone ([1]; 500 μM carboxin + 10 μg/mL ampicillin, FIG. 4F): significantly more sensitive; sensitivity of wildtype cells to H2O2 with carboxin compared to H2O2 alone ([1]; 500 μM carboxin + 5 mM H2O2, FIG. 4E): increased sensitivity; effect of carboxin alone on growth of wildtype cells ([1]; carboxin alone, 500 μM, wildtype E. coli, FIGS. 4E, 4F): no effect on the growth; lethality / growth of E. coli with carboxin ([1]; concentrations as high as 1 mM): non-lethal and allowed significant growth

**Q.** Which “sensitivity of many target strains compared to wildtype” value ([3]; many predicted target deletion strains) does the source give for gentamicin here?
**A.** decreased sensitivity

**Q.** And the “sensitivity of ΔatpC strain compared to wildtype” value ([3]; ΔatpC E. coli)?
**A.** increased sensitivity
